Data from patent US20220348876A1, “METABOLISM GUIDES DEFINITIVE LINEAGE SPECIFICATION DURING ENDOTHELIAL TO HEMATOPOIETIC TRANSITION” (Amniotics AB, priority 2019, published 2022).

Assays:
HE cells = assay: confocal imaging: filipin III and histone acetylation staining; assay type: cell-based, human; conditions: day 2, DCA-treated HE cells
Procedure: For TMRE staining, on day 3 of subculture, half of the culture medium was removed and cells were stained with 20 nM TMRE (Thermo Fisher Scientific, T669) by direct addition into the culture medium of a 2× concentrated solution. After a 20-minute incubation at 37° C., wells were carefully washed with PBS and fresh HE medium was added. During acquisition, cells were kept in a humidified incubator at 37° C., 5% CO2, 20% O2. For immunocytochemistry, subculture day 2 HE cells (plated on coverslips) were washed twice in PBS, fixed with 4% PFA for 15 minutes at RT and washed three times with PBS. For filipin staining, fixed cells were incubated with 100 μg/ml filipin III (Sigma-Aldrich, F4767) for 1 hour, washed three times with PBS and rinsed with distilled water before mounting with PVA/DABCO. […] Intensity quantification was performed using the Fiji software as follows. For TMRE, using the brightfield channel, ROIs were selected for 5 spindle-shaped and 5 round cells (randomly chosen) and average intensity for each ROI was calculated in a summatory Z-stack of the TMRE channel. For filipin and acetylation, the summatory Z-stack for the filipin channel was obtained and average intensity calculated. A total of 2-3 independent experiments with 2-3 replicate wells were quantified. […]

[1] = system: mitochondrial pyruvate carrier (MPC); conditions: read-out: IC50 of pyruvate-dependent O2 consumption; cited from earlier work
EHT cells = assay: EHT cell subculture with compounds, flow cytometry; assay type: cell-based, human; conditions: deriving from EHT cells, day 6; UK5099 10 μM

| Compound | increase in cholesterol content (HE cells) | IC50 [1] | decrease in the CD43+CD45+ population (EHT cells) |
| --- | --- | --- | --- |
| O=C(O)C(Cl)Cl [DCA, dichloroacetate] | 8% |  |  |
| N#C/C(=C\c1cn(-c2ccccc2)c2ccccc12)C(=O)O [UK5099] |  | […] | 2 -fold |
